Tested on: fatigue
Conditions: all types of fatigue: unexplained fatigue, chronic fatigue syndrome, fibromyalgia

Substance: [CuCl (Nicotinic acid)2 H20]complex [The complex]
- Effect in chronic fatigue (muscle pain, physical activity, productivity, depression): relieved the muscle pain, increased the physical activity and productivity

Reference: patent publication US20110136776A1, “Copper(1)Chloride Complex of Nicotinic Acid and Pharmaceutical Compositions Containing the Same” (priority 2008, published 2011)
